Data reported in article PMC12423301, “Astrocytic monoamine oxidase B (MAOB)–gamma-aminobutyric acid (GABA) axis as a molecular brake on repair following spinal cord injury” (Signal Transduction and Targeted Therapy, 2025).

What was measured:
[1] = test system: primary cultured spinal cord astrocytes; assay: BDNF expression in cultured astrocytes (qPCR, Western blot); assay type: cell-based, mouse
APP/PS1 transgenic mice [2] = assay: Cognitive tests in APP/PS1 transgenic mice; assay type: in vivo, mouse; settings: 4-week repeated dosing test
APP/PS1 transgenic mice [3] = assay: Tonic GABA current, neuronal firing and DAO compensation in APP/PS1 mice; assay type: in vivo, mouse; settings: 4-week repeated dosing test
[4] = similar drugs; ref ZELAPAR®, XADAGO®; cited from earlier work

SMILES | mRNA expression level of BDNF ([1]; GABA 100 μM, 24 h) | proBDNF expression (Western blotting) ([1]; GABA-treated) | cognitive function (APP/PS1 transgenic mice [2]) | neuronal firing (APP/PS1 transgenic mice [3]; 2nd week) | neuronal firing (APP/PS1 transgenic mice [3]; 4th week) | Tmax [4]
NCCCC(=O)O [GABA, γ-aminobutyric acid] | significantly downregulated | reduction |  |  |  | 
C#CCN(C)[C@H](C)Cc1ccccc1 [selegiline, reference compound] |  |  | cognitive function decline | started to decrease | completely lost | 45 min
